Assay results: US20010056184A1, “Pipecolinic acid derivatives, method of manufacturing the same and therapeutic agents containing these compounds” (priority 2000, published 2001)

Key:
Δ MT1-MMP (Δ MMP-14) = target: T1, Δ MT1-MMP (Δ MMP-14) (Homo sapiens, UniProt P50281); assay: Δ MT1-MMP (Δ MMP-14) inhibitory activities, fluorogenic substrate enzyme assay; assay type: biochemical; conditions: 37° C., 30 min, substrate 10 μM; read-out: ΔMMP-14 IC50
T1 construct: ProMT1-MMP cDNA encoded extracellular domain of pro Δ MT1-MMP was tranfected E. coli BL21DE3; made in house; host or cells: E. coli BL21DE3 (inclusion bodies, 8M urea, ion exchange)
Excerpt: Examination 3: Δ MT1-MMP (Δ MMP-14) inhibitory activities.
ProMT1-MMP cDNA encoded extracellular domain of pro Δ MT1-MMP was tranfected E. coli BL21DE3, pro Δ MT1-MMP collected as inclusion body was solved using 8M urea, and it was pulified by ion exchenge column chlomatography. Inhibition of enzyme activities were estimated by enzyme assay using activated Δ MT1-MMP, obtained from activation of pro Δ MT1-MMP by 10 μ/ml tripsine, and MOCAc-Pro-Leu-Gly-Leu-A2pr(Dnp)-Ala-Arg-NH2 (Peptide Research Center, 3163-v) as substrate. Thus, Δ MT1-MMP, test compound (several concentrations), and the substrate (10 μM) were incubated in 50 mM Tris - HCl buffer (pH 7.4) containing 0.2M NaCl, 10 mM CaCl2, 0.02% NaN3, 0.05% Brij 35, and 10 μM leuipeputine at 37° C. for 30 min. The reaction was stopped by adding of 4 volumes of sodium acetate buffer (pH 4.0), and the degradation of substrate was calculated by measurement with a fluorescence intensity (λ ex 328 nm, λ em 393 nm). Inhibition of degradation of substrate in the presence of compound was determined by comparison with the degradation of substrate in the absence of compound, and concentration of 50% inhibition (IC50 value) was calculated.

MMP-2 (gelatinase A) = target: T2, MMP-2 (gelatinase A) (Homo sapiens, UniProt P08253); assay: MMP-2 (gelatinase A) inhibitory activities, fluorogenic substrate enzyme assay; assay type: biochemical; conditions: 42° C., 2 h, substrate 10 μM
T2 construct: made in house; host or cells: COS-1 cells (secreted into culture medium)
T2 sequence (P08253 110-660): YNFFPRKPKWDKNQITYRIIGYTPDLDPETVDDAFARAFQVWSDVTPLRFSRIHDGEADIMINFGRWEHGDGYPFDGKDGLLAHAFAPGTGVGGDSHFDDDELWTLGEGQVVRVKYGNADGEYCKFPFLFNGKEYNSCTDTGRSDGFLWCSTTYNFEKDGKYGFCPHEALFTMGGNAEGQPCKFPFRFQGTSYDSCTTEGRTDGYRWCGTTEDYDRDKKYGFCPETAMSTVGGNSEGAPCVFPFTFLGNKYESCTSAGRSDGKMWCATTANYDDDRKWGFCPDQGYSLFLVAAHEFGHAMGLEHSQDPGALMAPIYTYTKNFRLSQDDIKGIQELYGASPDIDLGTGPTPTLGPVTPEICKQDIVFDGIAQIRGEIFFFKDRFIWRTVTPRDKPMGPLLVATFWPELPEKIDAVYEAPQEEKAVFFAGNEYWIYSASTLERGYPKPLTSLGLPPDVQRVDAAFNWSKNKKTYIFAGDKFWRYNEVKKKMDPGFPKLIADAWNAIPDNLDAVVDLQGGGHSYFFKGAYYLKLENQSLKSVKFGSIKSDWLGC
Description: (§1) Examination 2: MMP-2 (gelatinase A) and MMP-9 (gelatinase B) inhibitory activities.
(§2) Pro MMP-2 was obtained from culture medium separated from human pro-MMP-2 cDNA tranfected COS-1 cells. Pro MMP-2 activated by 1 mM (4-aminophenyl) mercury acetic acid and MMP-9, derived human fibrosarcome (Yagai Co. Ltd.), were used as enzyme respectively. Inhibition of both enzyme activities were estimated by enzyme assay using MOCAc-Pro-Leu-Gly-Leu-A2pr(Dnp)-Ala-Arg-NH2 (Peptide Research Center, 3163-v) as substrate. Thus, MMP-2 or MMP-9 (0.01 U/ml), test compound (several concentrations), and the substrate (10 μM) were incubated in 50 mM Tris - HCl buffer (pH 7.4) containing 0.2M NaCl, 10 mM CaCl2, 0.02% NaN3, and 0.05% Brij 35 at 42° C. for 2 h (MMP-2), 3 h (MMP-9) respectively. Inhibition of degradation of substrate in the presence of compound was determined by comparison with the degradation of substrate in the absence of compound, and concentration of 50% inhibition (IC50 value) was calculated.

MMP-9 (gelatinase B) = target: T3, MMP-9 (gelatinase B) (Homo sapiens, UniProt P14780); assay: MMP-9 (gelatinase B) inhibitory activities, fluorogenic substrate enzyme assay; assay type: biochemical; conditions: for IC50: 42° C., 3 h, substrate 10 μM
T3 construct: MMP-9, derived human fibrosarcome (Yagai Co. Ltd.), were used as enzyme respectively; purchased Yagai Co. Ltd; host or cells: human fibrosarcoma
T3 sequence (P14780 94-707): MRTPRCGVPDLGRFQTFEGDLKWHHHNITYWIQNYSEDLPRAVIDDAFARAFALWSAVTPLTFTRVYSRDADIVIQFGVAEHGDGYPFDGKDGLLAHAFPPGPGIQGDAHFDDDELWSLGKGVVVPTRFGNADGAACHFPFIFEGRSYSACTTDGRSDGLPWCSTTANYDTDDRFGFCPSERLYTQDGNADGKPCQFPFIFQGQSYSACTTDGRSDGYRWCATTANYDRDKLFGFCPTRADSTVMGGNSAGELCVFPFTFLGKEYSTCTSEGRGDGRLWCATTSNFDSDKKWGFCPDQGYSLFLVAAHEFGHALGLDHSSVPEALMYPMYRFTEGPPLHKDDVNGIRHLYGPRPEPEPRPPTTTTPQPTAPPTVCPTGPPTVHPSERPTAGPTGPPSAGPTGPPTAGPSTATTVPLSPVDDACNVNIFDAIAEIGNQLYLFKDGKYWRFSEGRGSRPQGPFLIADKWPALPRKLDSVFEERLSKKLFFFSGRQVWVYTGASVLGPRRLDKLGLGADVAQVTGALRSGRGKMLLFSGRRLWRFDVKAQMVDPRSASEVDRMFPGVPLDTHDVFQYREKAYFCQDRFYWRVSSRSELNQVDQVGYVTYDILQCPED
Description: as §1, §2

[1] = target: T4, human fibroblasts derived MMP-1 (type I collagenase) (Homo sapiens, UniProt P03956); assay: MMP-1 (type I collagenase) inhibitory activities, fluorogenic substrate enzyme assay; assay type: biochemical; conditions: at 10^−5M; NE means no effect; read-out: MMP-1 inhibition percent
T4 construct: human fibroblasts derived MMP-1 (Yagai Co. Ltd.) as enzyme; purchased Yagai Co. Ltd; host or cells: human fibroblasts
T4 sequence (P03956 100-469): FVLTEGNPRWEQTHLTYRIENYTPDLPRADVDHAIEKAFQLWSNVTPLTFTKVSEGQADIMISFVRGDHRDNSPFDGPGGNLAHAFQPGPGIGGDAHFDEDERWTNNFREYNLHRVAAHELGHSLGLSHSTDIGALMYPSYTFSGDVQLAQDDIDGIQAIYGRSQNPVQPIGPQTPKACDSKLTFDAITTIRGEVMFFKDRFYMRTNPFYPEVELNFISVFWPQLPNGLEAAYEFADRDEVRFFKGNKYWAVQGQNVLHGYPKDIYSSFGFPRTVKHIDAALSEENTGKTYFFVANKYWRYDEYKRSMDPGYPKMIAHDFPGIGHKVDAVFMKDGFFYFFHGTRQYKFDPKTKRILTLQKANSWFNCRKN
Description: Examination 1: MMP-1 (type I collagenase) inhibitory activities.
Inhibitory activities of MMP-1 (type I collagenase) activities were estimated by enzyme assay using human fibroblasts derived MMP-1 (Yagai Co. Ltd.) as enzyme, and MOCAc-Pro-Leu-Gly-Leu-A2pr(Dnp)-Ala-Arg-NH2 (Peptide Research Center, 3163-v) as substrate. Thus, MMP-1 (0.01 U/ml), test compound (10^−10˜10^−5 M), and the substrate (10 μM) were incubated in 50 mM Tris-HCl buffer (pH 7.4) containing 0.2M NaCl, 10 mM CaCl2, 0.02% NaN3, and 0.05% Brij 35 at 37° C. for 4 h. The reaction was stopped by adding of 4 volumes of sodium acetate buffer (pH 4.0), and the degradation of substrate was calculated by measurement with a fluorescence intensity (λ ex 328 nm, λ em 393 nm). Inhibition of degradation of substrate in the presence of compound was determined by comparison with the degradation percent of substrate in the absence of compound, and concentration of 50% inhibition (IC50 value) was calculated.

Row | melting point | IC50 (Δ MT1-MMP (Δ MMP-14)) | IC50 (MMP-2 (gelatinase A)) | IC50 (MMP-9 (gelatinase B)) | inhibition at 10 µM [1] | inhibition at 10 µM (MMP-9 (gelatinase B); at 10^−5M, read-out: MMP-9 inhibition percent) | Compound
1 | – | 300 nM | 500 nM | 450 nM | 31.1% | – | COc1ccc(OCCCCC(=O)N[C@H]2CCN(S(=O)(=O)c3ccc(OC)cc3)[C@H](C(=O)NO)C2)cc1 [Compound 78, (2S, 4S)-2-Hydroxyaminocarbonyl-1-(4-methoxybenzenesulfonyl)-4-[5-(4-methoxyphenoxy)pentanoylamino]-piperidine]
2 | – | 5000 nM | 7600 nM | – | 0% | 23.3% | COc1ccc(S(=O)(=O)N2CC[C@H](NC(=O)CCC(C)C)C[C@H]2C(=O)NO)cc1 [Compound 79, (2S, 4S)-2-Hydroxyaminocarbonyl-1-(4-methoxybenzenesulfonyl)-4-(4-methylpentanoylamino)-piperidine]
3 | – | 89 nM | 220 nM | 390 nM | 37.3% | – | COc1ccc(S(=O)(=O)N2CC[C@H](NC(C)=O)C[C@H]2C(=O)NO)cc1 [Compound 81, (2S, 4S)-4-Acetylamino-2-hydroxyaminocarbonyl-1-(4-methoxybenzenesulfonyl)-piperidine]

More lines, now with the values behind:

Row | Compound | melting point | IC50 (Δ MT1-MMP (Δ MMP-14)) | IC50 (MMP-2 (gelatinase A)) | IC50 (MMP-9 (gelatinase B)) | inhibition at 10 µM [1] | inhibition at 10 µM (MMP-9 (gelatinase B); at 10^−5M, read-out: MMP-9 inhibition percent)
4 | COc1ccc(C(=O)N[C@@H]2CCN(S(=O)(=O)c3ccc(-c4ccc(OC)cc4)cc3)[C@@H](C(=O)O)C2)cc1 [Compound 4, (2R, 4R)-2-Carboxy-4-(4-methoxybenzoylamino)-1-[4-(4-methoxyphenyl)benzenesulfonyl)-piperidine] | > 250 °C | – | – | – | – | –
5 | CCN[C@@H]1CCN(S(=O)(=O)c2ccc(-c3ccc(OC)cc3)cc2)[C@@H](C(=O)O)C1 [Compound 27, (2R, 4R)-2-Carboxy-4-ethylamino-1-[4-(4-methoxyphenyl)benzenesulfonyl]-piperidine] | > 250 °C | – | – | – | – | –
6 | COc1ccc(-c2ccc(S(=O)(=O)N3CC[C@H](NC(C)=O)C[C@@H]3C(=O)NO)cc2)cc1 [Compound 82, (2R, 4S)-4-Acetylamino-2-hydroxyaminocarbonyl-1-[4-(4-methoxyphenyl)benzenesulfonyl]-piperidine] | – | 1300 nM | 740 nM | 440 nM | 0% | –
7 | O=C(N[C@@H]1CCN(S(=O)(=O)c2ccc(-c3ccc(Cl)cc3)cc2)[C@@H](C(=O)O)C1)c1cccc[n+]1[O-] [Compound 89, (2R, 4R)-2-Carboxy-1-[4-(4-chlorophenyl)benzenesulfonyl]-4-(pyridyl-N-oxide-2-yl) carbonylamino-piperidine] | – | 7000 nM | 28 nM | 200 nM | 14% | –
